From patent publication US7153822B2, “Compositions and methods for modulating connexin hemichannels” (Wyeth, priority 2002, dated 2006)
Square brackets hold non-standard residues; d marks the D form. Peptide text beside a SMILES is read from it. dHyp = O=C(O)[C@H]1C[C@H](O)CN1

Key:
[1] = tested on: cultured primary cardiomyocytes; assay: stimulus-activation interval (conduction velocity) during glucose removal, patch clamp; format: cell-based, rat; conditions: 10 nM, superfusion 20 min after 15 min without glucose
Method: 1. Cell culture: In short the hearts from 20 neonate rats (age 1–2 days) are excised aseptically. The ventricles are isolated and cut into 4–6 pieces, which are digested in several steps in a Hanks buffered saline with trypsin and DNAse. The cells are then centrifuged and resuspended in MEM with 5% FCS. To eliminate non-muscle cells the suspension is preplated in petri dishes for 30 minutes at 37° C. The cells in suspension are then seeded onto collagen coated coverslips. Seeding density will be adjusted to give confluent cultures.
2. Electrophysiology: The cover slips with confluent cardiomyocytes are mounted in an open chamber on the stage of an inverted microscope and superfused with Dulbeccos phosphate buffered saline (PBS) by gravity driven flow at 1 ml/min, 37° C. The solution (PBS) contain (in mM): Na+ 152, K+ 4.2, Cl− 141.5, PO43− 9.5, Ca2+ 0.9, Mg2+ 0.5, pH 7.4. Patch clamp pipettes are pulled from 1.5 mm glass capillaries (GC150F-15, Harvard Apparatus) on a Sutter Flaming-Brown P-87 microelectrode puller and fire polished to a resistance of 4–6 MW. […]
The cells were perfused with control solution with 0.1 g/l BSA until a stable baseline in the stimulus-activation interval (SAI) was established. […] Date are expressed as percent change relative to baseline prior to removal of glucose from the media.

[2] = rat, in vivo, sc
Method: Compound 1 was delivered by an osmotic minipump (Alzet model 2ML4) that was inserted into the intraperitoneal (i.p.) cavity immediately prior to induction of the myocardial infarction. The pump was filled with vehicle (isotonic saline) or Compound 1 and primed at 37° C. for 24 hours prior to the operation. In order to ensure that the therapeutic plasma concentration was obtained already at the time of infarction, a loading dose of Compound 1 was given s.c. prior to ligation of the LAD.
After administration of the s.c. loading dose of Compound 1 and after i.p. insertion of the osmotic minipump, a left thoracotomy was performed, and the left anterior decending artery was ligated using a 6-0 silk suture. The thorax is closed in layers, and a negative pressure was induced in the pleural cavity to unfold the lungs. Sham-operated animals were subjected to the same procedure without ligation of the LAD. Postoperatively, the animal were allowed to recover in a heated cabinet at 30° C. with 50% oxygen until the next morning. To prevent dehydration during the recovery period, the rat was given 5 ml 5% glucose s.c. immediately after completion of surgery and another 5 ml 5% glucose at 4 p.m. To relieve postoperative pain, the rat was treated with buprenorphine (20 μg/100 g s.c. b.i.d.) and meloxicam (0.1 mg/100 g s.c. once daily) for three days after the myocardial infarction. […] Plasma concentrations of Compound 1 were measured by mass spectrometry following solid phase extraction.

With CC(=O)N[C@H](Cc1ccc(O)cc1)C(=O)N1CCC[C@@H]1C(=O)N1C[C@@H](O)C[C@@H]1C(=O)NCC(=O)N[C@H](C)C(=O)NCC(N)=O [Compound 1, Ac-D-Tyr-D-Pro-D-4Hyp-Gly-D-Ala-Gly-NH2] (Ac-[dY][dP][dHyp]G[dA]G-NH2) the stimulus-activation interval [1] was “decreased the stimulus-activation interval” and the “time to steady-state plasma level” value [2] was 3 min.
